Laboratory results as given in patent US20020137929A1, “1 - (3-heterocyclylphenyl) isothiourea, -isourea, -guanidine and -amidine herbicidal agents” (Intellectual Property Department, BASF Aktiengesellschaft, priority 1998, published 2002).

How the values were obtained:
AMBEL (Ragweed, Common) = assay: Preemergence herbicidal evaluation; type: in vivo, Ambrosia artemisifolia; conditions: rated 4-5 weeks after treatment
Outline: (§1)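 Test compound, dissolved in aqueous acetone, was sprayed over planted soil cups at an equivalent of about 0.0156 to 0.500 kg/ha; seeds had been mixed with potting soil. Greenhouse growth followed, with visual 0-9 scoring of injury at four to five weeks.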

GALAP (Galium) = assay: Postemergence herbicidal evaluation; type: in vivo, Galium aparine; conditions: for GALAP herbicidal rating: postemergence
Outline: (§2)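 Rate range approx. 0.0156–0.500 kg/ha. Foliar application at 40 psi to ~2-week seedlings; surfactant 0.5% TWEEN 20 in 50/50 acetone/water. Evaluation 4–5 wk post-treatment by 0–9 visual injury score, means of replicate tests.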

CYPSE (Flatsedge) [1] = assay: Preemergence weed control under flooded paddy conditions; type: in vivo, Cyperus serotinus; conditions: rated 3-4 weeks after treatment
Outline: (§3)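 Ratings on a 0-9 visual scale cover stand, vigor, malformation, size, chlorosis and overall appearance relative to a control, taken three to four weeks post-treatment. Application was into flood water over freshly sown silt loam at roughly 0.0313 to 0.500 kg/ha.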

[2] = tested on: SAGPY (Arrowhead (Pygmaea)); assay: Postemergence weed control under flooded paddy conditions; type: in vivo, Sagittaria pygmaea; conditions: postemergence weeds, 3-4 weeks after treatment
Outline: (§4)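 Flood-water application, about 0.0313–0.500 kg/ha a.i. in aqueous/acetone 50/50 v/v; water depth 1.5–3 cm throughout. Weeds 3–5 cm, rice 1.5–2.5 leaf. Greenhouse; 0–9 visual rating vs control at 3–4 wk.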

CYPSE (Flatsedge) [3] = assay: as above; type: in vivo, Cyperus serotinus; conditions: postemergence weeds, 3-4 weeks after treatment
Outline: as §4

ORYSAT (Rice, Tebonnet) [4] = assay: Postemergence herbicidal evaluation; type: in vivo, Oryza sativa, (L.) Tebonnet; conditions: for ORYSAT herbicidal rating: postemergence
Outline: as §2

[5] = tested on: GLXMAW (Soybean, Williams); assay: Preemergence herbicidal evaluation; type: in vivo, Glycine max, (L.) Merr. cv Williams; conditions: rated 4-5 weeks after treatment
Outline: as §1

CASOB (Sicklepod) = assay: Postemergence herbicidal evaluation; type: in vivo, Cassia obtusifolia; conditions: for CASOB herbicidal rating: postemergence
Outline: as §2

[6] = tested on: CHEAL (Lambsquarters, Common); assay: Postemergence herbicidal evaluation; type: in vivo, Chenopodium album; conditions: for CHEAL herbicidal rating: postemergence
Outline: as §2

CYPIR (Rice Flatsedge) = assay: Postemergence weed control under flooded paddy conditions; type: in vivo, Cyperus iria; conditions: postemergence weeds, 3-4 weeks after treatment
Outline: as §4

ZEAMX (Corn, Field) = assay: Postemergence herbicidal evaluation; type: in vivo, Zea mays; conditions: for ZEAMX herbicidal rating: postemergence
Outline: as §2

ORYSAT (Rice, Tebonnet) [7] = assay: Preemergence herbicidal evaluation; type: in vivo, Oryza sativa, (L.) Tebonnet; conditions: rated 4-5 weeks after treatment
Outline: as §1

MOOVA (Monochoria) = assay: Preemergence weed control under flooded paddy conditions; type: in vivo, Monochoria vaginalis; conditions: rated 3-4 weeks after treatment
Outline: as §3

SETVI (Foxtail, Green) = assay: Preemergence herbicidal evaluation; type: in vivo, Setaria viridis; conditions: rated 4-5 weeks after treatment
Outline: as §1

CN(C)N1C(=O)CSC1=Nc1cc(-n2c(=O)cc(C(F)(F)F)n(C)c2=O)c(F)cc1Cl [Compound 23, 3-{4-Chloro-5-{[3-(dimethylamino)-4-oxo-2-thiazolidinylidine]amino}-2-fluorophenyl}-1-methyl-6-(trifluoromethyl)-2,4(1H,3H)-pyrimidinedione]
AMBEL preemergence herbicidal rating (AMBEL (Ragweed, Common); rate 0.0156 kg/ha): 0.0 | AMBEL preemergence herbicidal rating (AMBEL (Ragweed, Common); rate 0.0313 kg/ha): 0.0 | AMBEL preemergence herbicidal rating (AMBEL (Ragweed, Common); rate 0.0625 kg/ha): 3.0 | AMBEL preemergence herbicidal rating (AMBEL (Ragweed, Common); rate 0.1250 kg/ha): 6.0 | AMBEL preemergence herbicidal rating (AMBEL (Ragweed, Common); rate 0.2500 kg/ha): 7.0 | GALAP herbicidal rating (GALAP (Galium); rate 0.0158 kg/ha): 3.0 | GALAP herbicidal rating (GALAP (Galium); rate 0.0315 kg/ha): 7.0 | GALAP herbicidal rating (GALAP (Galium); rate 0.0630 kg/ha): 9.0 | Herbicidal rating CYPSE (CYPSE (Flatsedge) [1]; 0.1160 kg/ha): 0.0 | Herbicidal rating CYPSE (CYPSE (Flatsedge) [1]; 0.2310 kg/ha): 0.0 | Herbicidal rating CYPSE (CYPSE (Flatsedge) [1]; 0.4630 kg/ha): 0.0 | Herbicidal rating SAGPY ([2]; rate 0.1160 kg/ha): 0.0 | Herbicidal rating SAGPY ([2]; rate 0.2310 kg/ha): 0.0 | Herbicidal rating SAGPY ([2]; rate 0.4630 kg/ha): 3.0 | Herbicidal rating CYPSE (CYPSE (Flatsedge) [3]; rate 0.1160 kg/ha): 0.0 | Herbicidal rating CYPSE (CYPSE (Flatsedge) [3]; rate 0.2310 kg/ha): 0.0 | Herbicidal rating CYPSE (CYPSE (Flatsedge) [3]; rate 0.4630 kg/ha): 0.0 | ORYSAT herbicidal rating (ORYSAT (Rice, Tebonnet) [4]; rate 0.0158 kg/ha): 2.0 | ORYSAT herbicidal rating (ORYSAT (Rice, Tebonnet) [4]; rate 0.0315 kg/ha): 2.5 | ORYSAT herbicidal rating (ORYSAT (Rice, Tebonnet) [4]; rate 0.0630 kg/ha): 4.5 | GLXMAW preemergence herbicidal rating ([5]; rate 0.0156 kg/ha): 0.0 | GLXMAW preemergence herbicidal rating ([5]; rate 0.0313 kg/ha): 0.0 | GLXMAW preemergence herbicidal rating ([5]; rate 0.0625 kg/ha): 2.0 | GLXMAW preemergence herbicidal rating ([5]; rate 0.1250 kg/ha): 6.0 | GLXMAW preemergence herbicidal rating ([5]; rate 0.2500 kg/ha): 7.0 | CASOB herbicidal rating (CASOB (Sicklepod); rate 0.0158 kg/ha): 0.0 | CASOB herbicidal rating (CASOB (Sicklepod); rate 0.0315 kg/ha): 1.0 | CASOB herbicidal rating (CASOB (Sicklepod); rate 0.0630 kg/ha): 3.0 | CHEAL herbicidal rating ([6]; rate 0.0158 kg/ha): 2.0 | CHEAL herbicidal rating ([6]; rate 0.0315 kg/ha): 7.0 | CHEAL herbicidal rating ([6]; rate 0.0630 kg/ha): 9.0 | Herbicidal rating CYPIR (CYPIR (Rice Flatsedge); rate 0.1160 kg/ha): 0.0 | Herbicidal rating CYPIR (CYPIR (Rice Flatsedge); rate 0.2310 kg/ha): 0.0 | Herbicidal rating CYPIR (CYPIR (Rice Flatsedge); rate 0.4630 kg/ha): 0.0 | ZEAMX herbicidal rating (ZEAMX (Corn, Field); rate 0.0158 kg/ha): 3.0 | ZEAMX herbicidal rating (ZEAMX (Corn, Field); rate 0.0315 kg/ha): 3.5 | ZEAMX herbicidal rating (ZEAMX (Corn, Field); rate 0.0630 kg/ha): 5.0 | ORYSAT preemergence herbicidal rating (ORYSAT (Rice, Tebonnet) [7]; rate 0.0156 kg/ha): 0.0 | ORYSAT preemergence herbicidal rating (ORYSAT (Rice, Tebonnet) [7]; rate 0.0313 kg/ha): 0.0 | ORYSAT preemergence herbicidal rating (ORYSAT (Rice, Tebonnet) [7]; rate 0.0625 kg/ha): 1.0 | ORYSAT preemergence herbicidal rating (ORYSAT (Rice, Tebonnet) [7]; rate 0.1250 kg/ha): 1.0 | ORYSAT preemergence herbicidal rating (ORYSAT (Rice, Tebonnet) [7]; rate 0.2500 kg/ha): 7.0 | Herbicidal rating MOOVA (MOOVA (Monochoria); 0.1160 kg/ha): 9.0 | Herbicidal rating MOOVA (MOOVA (Monochoria); 0.2310 kg/ha): 9.0 | Herbicidal rating MOOVA (MOOVA (Monochoria); 0.4630 kg/ha): 9.0 | SETVI preemergence herbicidal rating (SETVI (Foxtail, Green); rate 0.0156 kg/ha): 1.0 | SETVI preemergence herbicidal rating (SETVI (Foxtail, Green); rate 0.0313 kg/ha): 1.0 | SETVI preemergence herbicidal rating (SETVI (Foxtail, Green); rate 0.0625 kg/ha): 5.0 | SETVI preemergence herbicidal rating (SETVI (Foxtail, Green); rate 0.1250 kg/ha): 5.0 | SETVI preemergence herbicidal rating (SETVI (Foxtail, Green); rate 0.2500 kg/ha): 6.0

COC(=O)CCCN1C(=O)CSC1=Nc1cc(-n2c(=O)cc(C(F)(F)F)n(C)c2=O)c(F)cc1Cl [Compound 29, Methyl 2-{{2-chloro-5-[3,6-dihydro-3-methyl-2,6-dioxo-4-(trifluoromethyl)-1(2H)-pyrimidinyl]-4-fluorophenyl}imino}-4-oxo-3-thiazolidinebutyrate]
Preemergence herbicidal rating AMBEL (AMBEL (Ragweed, Common); rate 0.0625 kg/ha): 0.0 | Preemergence herbicidal rating AMBEL (AMBEL (Ragweed, Common); rate 0.1250 kg/ha): 0.0 | Preemergence herbicidal rating AMBEL (AMBEL (Ragweed, Common); rate 0.2500 kg/ha): 0.0 | Postemergence herbicidal rating GALAP (GALAP (Galium); Rate 0.0158 kg/ha): 1.0 | Postemergence herbicidal rating GALAP (GALAP (Galium); Rate 0.0315 kg/ha): 1.0 | Postemergence herbicidal rating GALAP (GALAP (Galium); Rate 0.0630 kg/ha): 7.0 | Herbicidal rating CYPSE (CYPSE (Flatsedge) [1]; 0.0313 kg/ha): 0.0 | Herbicidal rating CYPSE (CYPSE (Flatsedge) [1]; 0.0625 kg/ha): 0.0 | Herbicidal rating CYPSE (CYPSE (Flatsedge) [1]; 0.1250 kg/ha): 0.0 | Herbicidal rating CYPSE (CYPSE (Flatsedge) [1]; 0.2500 kg/ha): 0.0 | Herbicidal rating SAGPY ([2]; rate 0.0313 kg/ha): 0.0 | Herbicidal rating SAGPY ([2]; rate 0.0625 kg/ha): 0.0 | Herbicidal rating SAGPY ([2]; rate 0.1250 kg/ha): 0.0 | Herbicidal rating SAGPY ([2]; rate 0.2500 kg/ha): 0.0 | Herbicidal rating CYPSE (CYPSE (Flatsedge) [3]; rate 0.0313 kg/ha): 0.0 | Herbicidal rating CYPSE (CYPSE (Flatsedge) [3]; rate 0.0625 kg/ha): 0.0 | Herbicidal rating CYPSE (CYPSE (Flatsedge) [3]; rate 0.1250 kg/ha): 0.0 | Herbicidal rating CYPSE (CYPSE (Flatsedge) [3]; rate 0.2500 kg/ha): 0.0 | Postemergence herbicidal rating ORYSAT (ORYSAT (Rice, Tebonnet) [4]; Rate 0.0158 kg/ha): 1.0 | Postemergence herbicidal rating ORYSAT (ORYSAT (Rice, Tebonnet) [4]; Rate 0.0315 kg/ha): 3.0 | Postemergence herbicidal rating ORYSAT (ORYSAT (Rice, Tebonnet) [4]; Rate 0.0630 kg/ha): 3.5 | Preemergence herbicidal rating GLXMAW ([5]; rate 0.0625 kg/ha): 0.0 | Preemergence herbicidal rating GLXMAW ([5]; rate 0.1250 kg/ha): 0.0 | Preemergence herbicidal rating GLXMAW ([5]; rate 0.2500 kg/ha): 2.0 | Postemergence herbicidal rating CASOB (CASOB (Sicklepod); Rate 0.0158 kg/ha): 0.0 | Postemergence herbicidal rating CASOB (CASOB (Sicklepod); Rate 0.0315 kg/ha): 0.0 | Postemergence herbicidal rating CASOB (CASOB (Sicklepod); Rate 0.0630 kg/ha): 0.0 | Postemergence herbicidal rating CHEAL ([6]; Rate 0.0158 kg/ha): 1.0 | Postemergence herbicidal rating CHEAL ([6]; Rate 0.0315 kg/ha): 1.0 | Postemergence herbicidal rating CHEAL ([6]; Rate 0.0630 kg/ha): 5.0 | Herbicidal rating CYPIR (CYPIR (Rice Flatsedge); rate 0.0313 kg/ha): 0.0 | Herbicidal rating CYPIR (CYPIR (Rice Flatsedge); rate 0.0625 kg/ha): 0.0 | Herbicidal rating CYPIR (CYPIR (Rice Flatsedge); rate 0.1250 kg/ha): 0.0 | Herbicidal rating CYPIR (CYPIR (Rice Flatsedge); rate 0.2500 kg/ha): 0.0 | Postemergence herbicidal rating ZEAMX (ZEAMX (Corn, Field); Rate 0.0158 kg/ha): 5.5 | Postemergence herbicidal rating ZEAMX (ZEAMX (Corn, Field); Rate 0.0315 kg/ha): 5.5 | Postemergence herbicidal rating ZEAMX (ZEAMX (Corn, Field); Rate 0.0630 kg/ha): 7.5 | Preemergence herbicidal rating ORYSAT (ORYSAT (Rice, Tebonnet) [7]; rate 0.0625 kg/ha): 0.0 | Preemergence herbicidal rating ORYSAT (ORYSAT (Rice, Tebonnet) [7]; rate 0.1250 kg/ha): 0.0 | Preemergence herbicidal rating ORYSAT (ORYSAT (Rice, Tebonnet) [7]; rate 0.2500 kg/ha): 3.0 | Herbicidal rating MOOVA (MOOVA (Monochoria); 0.0313 kg/ha): 0.0 | Herbicidal rating MOOVA (MOOVA (Monochoria); 0.0625 kg/ha): 0.0 | Herbicidal rating MOOVA (MOOVA (Monochoria); 0.1250 kg/ha): 0.0 | Herbicidal rating MOOVA (MOOVA (Monochoria); 0.2500 kg/ha): 0.0 | Preemergence herbicidal rating SETVI (SETVI (Foxtail, Green); rate 0.0625 kg/ha): 0.0 | Preemergence herbicidal rating SETVI (SETVI (Foxtail, Green); rate 0.1250 kg/ha): 0.0 | Preemergence herbicidal rating SETVI (SETVI (Foxtail, Green); rate 0.2500 kg/ha): 9.0
